In publication PMC7708446, “^18F-meta-fluorobenzylguanidine (^18F-mFBG) to monitor changes in norepinephrine transporter expression in response to therapeutic intervention in neuroblastoma models” (Scientific Reports, 2020):

Legend:
[1] = tested on: SK-N-BE(2)C xenografts; assay: Ex vivo biodistribution (γ-counter), mice bearing SK-N-BE(2)C xenografts; assay type: in vivo; settings: SK-N-BE(2)C
Description: (§1) All studies were conducted in compliance with licenses issued under the UK Animals (Scientific Procedures) Act 1986 and approved by the Institute of Cancer Research Animal Welfare and Ethical Review Body (AWERB) according to the United Kingdom National Cancer Research Institute Guidelines for Animal Welfare in Cancer Research (project license PCC916B22, Animals in Science Regulation Unit, Home Office Science, London, UK)[65]. Female Nu(NCr)-Foxn1nu mice (5–7 weeks; 20–22 g) obtained from an in-house breeding colony were used in the studies. Animals were housed in a temperature-controlled facility with 12 h on–12 h off light cycle and provided water and laboratory rodent food ad libitum. Subcutaneous xenografts were generated by injection of either Kelly (5 × 10^6/0.1 mL PBS/Matrigel 30% v/v; BD Matrigel Matrix, BD Bioscience, San Jose, California, US) or SK-N-BE(2)C (1 × 10^6/0.1 mL PBS/Matrigel) into the lower flank. For the treatment studies, AZD2014 stock solution in DMSO was diluted in PEG400 to a final concentration of 2 mg/mL (10% DMSO maximum). When tumours reached ~ 100 mm^3 (calliper measurements using formula: Volume = (Width(2) × Length)/2), mice were treated daily, for a total of either 1, 3 or 7 days, by oral gavage with AZD2014 (20 or 25 mg/kg/day) or vehicle control. Mice were monitored daily for body weight or other adverse effects.
(§2) When the tumours reached approximately 100–200 mm^3, mice were anaesthetised with an isoflurane/O2 mixture (1.5–2.0% v/v) and intravenously injected with either ^18F-mFBG (~ 7.5 MBq) or ^123I-mIBG (~ 20 MBq). Mice were then imaged using an Albira PET/SPECT/CT scanner (Bruker, Coventry, UK). Whole body PET static images were acquired after 1 and 4 h post-injection (p.i.) for 10 min with an energy window of 358 to 664 keV followed by CT acquisition. Acquisition, reconstruction and image analysis were performed as described previously. Following the final scan, the mice were sacrificed and the major organs were excised, weighed and their associated radioactivity was measured using a γ-counter. Biodistribution and image quantification were expressed as a percentage of injected dose per gram of tissue (%ID/g), whereby 1 cm^3 on PET acquisitions were assumed to equal 1 g (n ≥ 3 mice ± SD).

[2] = tested on: Kelly xenografts; assay: Ex vivo biodistribution (γ-counter), mice bearing Kelly xenografts; assay type: in vivo; settings: for ^18F-mFBG biodistribution 4 h p.i., Blood / ^18F-mFBG biodistribution 4 h p.i., Bone / ^18F-mFBG biodistribution 4 h p.i., Brown adipose / ^18F-mFBG biodistribution 4 h p.i., Heart / ^18F-mFBG biodistribution 4 h p.i., Kidney / ^18F-mFBG biodistribution 4 h p.i., Liver / ^18F-mFBG biodistribution 4 h p.i., Lungs / ^18F-mFBG biodistribution 4 h p.i., Muscle / ^18F-mFBG biodistribution 4 h p.i., Pancreas / ^18F-mFBG biodistribution 4 h p.i., Small intestine / ^18F-mFBG biodistribution 4 h p.i., Spleen / ^18F-mFBG biodistribution 4 h p.i., Tumour / ^18F-mFBG biodistribution 4 h p.i., Tumour:blood / ^18F-mFBG biodistribution 4 h p.i., Tumour:muscle: Kelly, 3 days
Description: as §1, §2

[3] = tested on: Kelly xenografts; assay: PET quantification of tumour uptake, Kelly xenografts; assay type: in vivo, mice
Description: as §2

SMILES: N=C(N)NCc1cccc([18F])c1 [^18F-mFBG, ^18F-meta-fluorobenzylguanidine]
- ^18F-mFBG biodistribution 4 h p.i., Blood ([1]; 7 day AZD2014 (20 mg/kg/day)): 0.32 ± 0.14 %ID/g
- ^18F-mFBG biodistribution 4 h p.i., Bone ([1]; 7 day AZD2014 (20 mg/kg/day)): 0.63 ± 0.54 %ID/g
- ^18F-mFBG biodistribution 4 h p.i., Brown adipose ([1]; 7 day AZD2014 (20 mg/kg/day)): 8.08 ± 0.72 %ID/g
- ^18F-mFBG biodistribution 4 h p.i., Heart ([1]; 7 day AZD2014 (20 mg/kg/day)): 4.17 ± 1.63 %ID/g
- ^18F-mFBG biodistribution 4 h p.i., Kidney ([1]; 7 day AZD2014 (20 mg/kg/day)): 1.02 ± 0.15 %ID/g
- ^18F-mFBG biodistribution 4 h p.i., Liver ([1]; 7 day AZD2014 (20 mg/kg/day)): 2.64 ± 0.46 %ID/g
- ^18F-mFBG biodistribution 4 h p.i., Lungs ([1]; 7 day AZD2014 (20 mg/kg/day)): 1.33 ± 0.36 %ID/g
- ^18F-mFBG biodistribution 4 h p.i., Muscle ([1]; 7 day AZD2014 (20 mg/kg/day)): 0.75 ± 0.02 %ID/g
- ^18F-mFBG biodistribution 4 h p.i., Pancreas ([1]; 7 day AZD2014 (20 mg/kg/day)): 3.08 ± 1.80 %ID/g
- ^18F-mFBG biodistribution 4 h p.i., Small intestine ([1]; 7 day AZD2014 (20 mg/kg/day)): 6.87 ± 1.86 %ID/g
- ^18F-mFBG biodistribution 4 h p.i., Spleen ([1]; 7 day AZD2014 (20 mg/kg/day)): 1.64 ± 0.46 %ID/g
- ^18F-mFBG biodistribution 4 h p.i., Tumour ([1]; 7 day AZD2014 (20 mg/kg/day)): 2.61 ± 1.19 %ID/g
- ^18F-mFBG biodistribution 4 h p.i., Tumour:blood ([1]; 7 day AZD2014 (20 mg/kg/day)): 8.06 ± 2.57
- ^18F-mFBG biodistribution 4 h p.i., Tumour:muscle ([1]; 7 day AZD2014 (20 mg/kg/day)): 3.50 ± 1.62
- ^18F-mFBG biodistribution 4 h p.i., Blood ([1]; 7 day vehicle): 0.17 ± 0.06 %ID/g
- ^18F-mFBG biodistribution 4 h p.i., Bone ([1]; 7 day vehicle): 1.13 ± 0.20 %ID/g
- ^18F-mFBG biodistribution 4 h p.i., Brown adipose ([1]; 7 day vehicle): 6.08 ± 2.45 %ID/g
- ^18F-mFBG biodistribution 4 h p.i., Heart ([1]; 7 day vehicle): 5.87 ± 2.80 %ID/g
- ^18F-mFBG biodistribution 4 h p.i., Kidney ([1]; 7 day vehicle): 1.09 ± 0.16 %ID/g
- ^18F-mFBG biodistribution 4 h p.i., Liver ([1]; 7 day vehicle): 2.15 ± 0.30 %ID/g
- ^18F-mFBG biodistribution 4 h p.i., Lungs ([1]; 7 day vehicle): 1.86 ± 0.64 %ID/g
- ^18F-mFBG biodistribution 4 h p.i., Muscle ([1]; 7 day vehicle): 0.67 ± 0.07 %ID/g
- ^18F-mFBG biodistribution 4 h p.i., Pancreas ([1]; 7 day vehicle): 2.81 ± 1.72 %ID/g
- ^18F-mFBG biodistribution 4 h p.i., Small intestine ([1]; 7 day vehicle): 6.22 ± 0.35 %ID/g
- ^18F-mFBG biodistribution 4 h p.i., Spleen ([1]; 7 day vehicle): 1.75 ± 0.67 %ID/g
- ^18F-mFBG biodistribution 4 h p.i., Tumour ([1]; 7 day vehicle): 2.17 ± 1.01 %ID/g
- ^18F-mFBG biodistribution 4 h p.i., Tumour:blood ([1]; 7 day vehicle): 15.55 ± 13.55
- ^18F-mFBG biodistribution 4 h p.i., Tumour:muscle ([1]; 7 day vehicle): 3.36 ± 1.90
- tumour uptake ([2]; Kelly xenografts, 4 h p.i., n = 3): 0.30 ± 0.14 %ID/g
- ^18F-mFBG biodistribution 4 h p.i., Blood ([2]; AZD2014 (25 mg/kg/day)): 0.19 ± 0.03 %ID/g
- ^18F-mFBG biodistribution 4 h p.i., Bone ([2]; AZD2014 (25 mg/kg/day)): 0.99 ± 0.07 %ID/g
- ^18F-mFBG biodistribution 4 h p.i., Brown adipose ([2]; AZD2014 (25 mg/kg/day)): 7.20 ± 0.88 %ID/g
- ^18F-mFBG biodistribution 4 h p.i., Heart ([2]; AZD2014 (25 mg/kg/day)): 4.22 ± 0.85 %ID/g
- ^18F-mFBG biodistribution 4 h p.i., Kidney ([2]; AZD2014 (25 mg/kg/day)): 0.97 ± 0.17 %ID/g
- ^18F-mFBG biodistribution 4 h p.i., Liver ([2]; AZD2014 (25 mg/kg/day)): 2.08 ± 0.45 %ID/g
- ^18F-mFBG biodistribution 4 h p.i., Lungs ([2]; AZD2014 (25 mg/kg/day)): 1.31 ± 0.39 %ID/g
- ^18F-mFBG biodistribution 4 h p.i., Muscle ([2]; AZD2014 (25 mg/kg/day)): 0.64 ± 0.17 %ID/g
- ^18F-mFBG biodistribution 4 h p.i., Pancreas ([2]; AZD2014 (25 mg/kg/day)): 1.25 ± 0.21 %ID/g
- ^18F-mFBG biodistribution 4 h p.i., Small intestine ([2]; AZD2014 (25 mg/kg/day)): 7.30 ± 1.11 %ID/g
- ^18F-mFBG biodistribution 4 h p.i., Spleen ([2]; AZD2014 (25 mg/kg/day)): 4.58 ± 0.77 %ID/g
- ^18F-mFBG biodistribution 4 h p.i., Tumour ([2]; AZD2014 (25 mg/kg/day)): 0.74 ± 0.25 %ID/g
- ^18F-mFBG biodistribution 4 h p.i., Tumour:blood ([2]; AZD2014 (25 mg/kg/day)): 4.16 ± 1.89
- ^18F-mFBG biodistribution 4 h p.i., Tumour:muscle ([2]; AZD2014 (25 mg/kg/day)): 1.23 ± 0.61
- ^18F-mFBG biodistribution 4 h p.i., Blood ([2]; Vehicle): 0.22 ± 0.05 %ID/g
- ^18F-mFBG biodistribution 4 h p.i., Bone ([2]; Vehicle): 1.43 ± 0.83 %ID/g
- ^18F-mFBG biodistribution 4 h p.i., Brown adipose ([2]; Vehicle): 5.84 ± 2.44 %ID/g
- ^18F-mFBG biodistribution 4 h p.i., Heart ([2]; Vehicle): 6.34 ± 1.41 %ID/g
- ^18F-mFBG biodistribution 4 h p.i., Kidney ([2]; Vehicle): 1.11 ± 0.47 %ID/g
- ^18F-mFBG biodistribution 4 h p.i., Liver ([2]; Vehicle): 2.37 ± 0.71 %ID/g
- ^18F-mFBG biodistribution 4 h p.i., Lungs ([2]; Vehicle): 1.52 ± 0.22 %ID/g
- ^18F-mFBG biodistribution 4 h p.i., Muscle ([2]; Vehicle): 0.74 ± 0.23 %ID/g
- ^18F-mFBG biodistribution 4 h p.i., Pancreas ([2]; Vehicle): 1.26 ± 0.28 %ID/g
- ^18F-mFBG biodistribution 4 h p.i., Small intestine ([2]; Vehicle): 6.57 ± 1.12 %ID/g
- ^18F-mFBG biodistribution 4 h p.i., Spleen ([2]; Vehicle): 3.77 ± 0.82 %ID/g
- ^18F-mFBG biodistribution 4 h p.i., Tumour ([2]; Vehicle): 0.39 ± 0.13 %ID/g
- ^18F-mFBG biodistribution 4 h p.i., Tumour:blood ([2]; Vehicle): 1.75 ± 0.29
- ^18F-mFBG biodistribution 4 h p.i., Tumour:muscle ([2]; Vehicle): 0.53 ± 0.01
- PET tumour uptake ([3]; 1 h p.i., n = 9): 1.10 ± 0.34 %ID/g
- PET tumour uptake ([3]; 4 h p.i., n = 5): 0.65 ± 0.29 %ID/g
